Molecular target: T1, GenP (Micromonospora echinospora, UniProt A0A1C4WLH3)
T1 sequence (A0A1C4WLH3 1-268): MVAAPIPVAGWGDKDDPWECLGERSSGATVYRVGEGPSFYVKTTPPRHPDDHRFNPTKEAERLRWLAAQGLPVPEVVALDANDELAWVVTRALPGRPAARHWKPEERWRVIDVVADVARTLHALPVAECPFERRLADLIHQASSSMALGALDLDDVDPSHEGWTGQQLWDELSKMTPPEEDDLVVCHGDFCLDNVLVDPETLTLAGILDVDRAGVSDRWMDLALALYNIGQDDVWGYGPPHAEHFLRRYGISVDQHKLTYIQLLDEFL
Assay: preparative phosphorylation, HPLC-ELSD
Type: biochemical
Conditions: ATP […], MgCl2 […], Tris […] pH […] °C, […] h

CN[C@@H]1[C@@H](O)[C@@H](O[C@@H]2[C@@H](O)[C@H](O[C@H]3O[C@H](CN)[C@@H](O)[C@H](O)[C@H]3N)[C@@H](N)C[C@H]2N)OC[C@]1(C)O [JI-20A]
preparative phosphorylation, HPLC-ELSD: JI-20A-P, JI-20Ba-P, and JI-20B-P were obtained through the catalysis of GenP

Reference: PMC11869428 (Microbial Cell Factories, 2025)
